This is an account of results in patent publication US9145444B2, “Compounds and methods associated with differential methylation of human papilloma virus genomes in epithelial cells” (Ruprecht-Karls-Universität Heidelberg, priority 2007, dated 2015).

In data set [1] the test system is early p97 HPV16 promoter. Kind of data set: luciferase assay of p97 promoter activity in keratinocytes transfected with LCR16_Luc. In kind it is cell-based, human. As for the experimental part: The impact of treatment with epigenetic inhibitors (demethylation agents) on the activity of the p97 promoter is assessed using luciferase assay. Normal human keratinocytes transfected with the reporter plasmid LCR16_Luc, which contains the complete LCR fragment of the HPV-16 cloned in front of the luciferase gene were grown to about 50-60% confluence. Cells were treated with 2 μM and 4 μM 5-azacytidin for 24 and 72 hs.

For data set [2] the following is noted: phase I and II trials, systemic therapy; cited from earlier work.
The test system of data set [3] is normal human firoblasts. The settings on record: normal human fibroblasts; cited from earlier work.

Regarding `Nc1ncn([C@@H]2O[C@H](CO)[C@@H](O)[C@H]2O)c(=O)n1` [5-azacytidine, 5-Azacytidine], the “p97 promoter activity reduced to” value in data set [1] (2 μM, undifferentiated or differentiated cells, FIG. 9) is on record as 40-60%. In addition, the p97 promoter activity result in data set [1] (4 μM, undifferentiated and differentiated cells, FIG. 9) is on record as “significantly reduced to the basal level”. Besides, the “activity of the early p97 promoter” value in data set [1] (normal human keratinocytes, LCR16_Luc reporter, 2 μM and 4 μM for 24 and 72 hs) is reported as “decreased the activity of the early p97 promoter in a dose dependent manner”. Also, in data set [2], the dose-limiting toxicity result was “myelosuppression”; the “most commonly reported non-hematologic adverse effect” value is “nausea and vomiting”. In data set [3], the “basal level and TGFβ-induced collagen biosynthesis” value is given as “inhibits”.
As for `Nc1ncn([C@H]2C[C@H](O)[C@@H](CO)O2)c(=O)n1` [decitabine, 5-Aza-20-deoxycytidine], in data set [2], the dose-limiting toxicity result is “myelosuppression”; the “most commonly reported non-hematologic adverse effect” value is “nausea and vomiting”.
